{
  "source": "patent US20240130675A1",
  "about": "“Methods for Treating Autism Spectrum Disorder” (The General Hospital Corporation, priority 2021, published 2024)",
  "origin": "cited, not measured here",
  "key": {"[1]": {"system": "ASD", "conditions": "in vivo; cited from earlier work"}, "[2]": {"system": "older adolescents and young adults with ASDs", "conditions": "cited from earlier work"}, "[3]": {"system": "ASD children", "conditions": "cited from earlier work"}, "[4]": {"system": "youth with ASD", "conditions": "cited from earlier work"}, "[5]": {"system": "ASD symptoms", "conditions": "5-19 year-olds, four weeks; only reflected in CGI, not in ABC-CV; cited from earlier work"}, "[6]": {"system": "autism", "conditions": "RUPP Autism Network study; cited from earlier work"}, "[7]": {"system": "ASD symptoms", "conditions": "RCT; cited from earlier work"}},
  "note": "Structures can show the parent of a compound that is named as a salt.",
  "data": [
    {"smiles": "N[C@@H]1CONC1=O", "note": "[D-Cycloserine]", "values": [
      {"measurement": "Social Responsiveness Scale and Aberrant Behavior Checklist", "setting": "[1]", "result": "statistically and clinically significant improvement"},
      {"measurement": "Stereotypic symptoms, Aberrant Behavior Checklist subscale 3", "setting": "[2]", "result": "improved stereotypic symptoms"}
    ]},
    {"smiles": "CC(=O)N[C@@H](CS)C(=O)O", "note": "[NAC, N-Acetylcysteine]", "values": [
      {"measurement": "ABC irritability subscale score vs placebo", "setting": "[3]", "result": "significant improvement"},
      {"measurement": "Social impairment", "setting": "[4]", "result": "no significant impact on social impairment"}
    ]},
    {"smiles": "NC12CC3CC(CC(C3)C1)C2", "note": "[amantadine hydrochloride]", "values": [
      {"measurement": "ASD symptoms vs placebo", "setting": "[5]", "result": "improvement in ASD symptoms"}
    ]},
    {"smiles": "Cc1nc2n(c(=O)c1CCN1CCC(c3noc4cc(F)ccc34)CC1)CCCC2", "note": "[risperidone]", "values": [
      {"measurement": "Response rate, treatment group", "setting": "[6]", "result": 69.4, "unit": "%"}
    ]},
    {"smiles": "Nc1nnc(-c2cccc(Cl)c2Cl)c(N)n1", "note": "[lamotrigine]", "values": [
      {"measurement": "Improvements vs placebo on Autism Behavior Checklist, Aberrant Behavior Checklist, Vineland, PL-ADOS, CARS", "setting": "[7]", "result": "no significant differences in improvements"}
    ]}
  ]
}
